Source: paper PMC10584170, “Machine learning-based phenotypic imaging to characterise the targetable biology of Plasmodium falciparum male gametocytes for the development of transmission-blocking antimalarials” (PLOS Pathogens, 2023)

Experiments:
[1] = test system: P. falciparum male gametocytes; test: P. falciparum Dual Gamete Formation Assay (PfDGFA), male readout (exflagellation); type: cell-based, Plasmodium falciparum NF54; details: for Average inhibition male (%): average of replicates; for % inhibition male (individual replicates) R1: replicate R1; for % inhibition male (individual replicates) R4: replicate R4; for Activity: hit = >50% inhibition in male or female readout in at least 3 replicates, 0 = no class assigned; for % inhibition male (individual replicates) R3: replicate R3
Outline: (§1)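 First, day-14 P. falciparum NF54 gametocytes receive compound for 24 h at 37°C in 1% O2/3% CO2. Next, ookinete medium with Cy3 anti-Pfs25 triggers gametogenesis at 28°C and male exflagellation is imaged. Finally, after 24 h in the dark, Cy3-labelled females are imaged.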

[2] = test system: P. falciparum female gametocytes; test: P. falciparum Dual Gamete Formation Assay (PfDGFA), female readout (Pfs25-positive female gametes); type: cell-based, Plasmodium falciparum NF54; details: for Average inhibition female (%): average of replicates; for % inhibition female (individual replicates) R1: replicate R1; for % inhibition female (individual replicates) R3: replicate R3; for % inhibition female (individual replicates) R4: replicate R4
Outline: as §1

[3] = 2µM, 24h preincubation with gametocytes prior to induction of gametogenesis
[4] = 2µM, 24h preincubation, hits selected on >50% inhibition in the male readout across replicates
[5] = PfDGFA at 2µM, 24h preincubation
[6] = 2µM, 24h preincubation, hits selected on >50% inhibition in the female readout across replicates
[7] = PfDGFA at 2µM, 24h preincubation with gametocytes prior to induction of gametogenesis
[8] = 2µM, 24h preincubation, number of replicates with >50% inhibition in the male readout
[9] = 2µM, 24h preincubation, number of replicates with >50% inhibition in the female readout
[10] = 2µM, 24h preincubation with gametocytes
[11] = PfDGFA at 2µM, 24h preincubation with gametocytes

SMILES | Average inhibition male (%) [1, 3] [%] | % inhibition male (individual replicates) R1 [1, 3] [%] | % inhibition male (individual replicates) R4 [1, 3] [%] | Average inhibition female (%) [2, 3] [%] | % inhibition female (individual replicates) R1 [2, 3] [%] | % inhibition female (individual replicates) R3 [2, 3] [%] | % inhibition female (individual replicates) R4 [2, 3] [%] | % inhibition male (individual replicates) R1 [1, 7] [%] | % inhibition male (individual replicates) R3 [1, 7] [%] | % inhibition male (individual replicates) R4 [1, 7] [%] | Average inhibition male (%) [1, 5] [%] | % inhibition female (individual replicates) R1 [2, 7] [%] | % inhibition female (individual replicates) R3 [2, 7] [%] | % inhibition female (individual replicates) R4 [2, 7] [%] | Average inhibition female (%) [2, 5] [%] | % inhibition male (individual replicates) R3 [1, 3] [%] | also measured
CCC(=C(CC)c1ccc(O)c(CNC2CCCCC2)c1)c1ccc(O)c(CNC2CCCCC2)c1.Cl [TCMDC-137481] | 1.2 | -0.3 | 0.8 | 5.6 | 2.3 | 13.0 | 6.2 | – | – | – | – | – | – | – | – | – | HitlevelM [1, 4]: 0; Activity [1, 5]: 0; HitlevelF [2, 6]: 0
Nc1nc(Cc2ccc(Cl)cc2)nc(Cc2ccc(Cl)cc2)n1 [TCMDC-137497] | – | – | – | – | – | – | – | -13.6 | -49.6 | -34.5 | -26.4 | -4.6 | -30.4 | 8.0 | -6.5 | – | –
COc1ccc(O)cc1Cc1cnc2nc(N)nc(N)c2c1C [TCMDC-137498] | -10.8 | 7.6 | -40.5 | 6.7 | 14.0 | 17.6 | 8.3 | – | – | – | – | – | – | – | – | -15.7 | HitlevelM [1, 4]: 0; Activity [1, 5]: 0; HitlevelF [2, 6]: 0
Clc1ccc(CNCCCCCCNCc2ccc(Cl)cc2)cc1.O=C(O)c1ccc2ccccc2c1O [TCMDC-137500] | 60.2 | 69.1 | 76.2 | 9.2 | 13.6 | -5.3 | 22.1 | – | – | – | – | – | – | – | – | 26.6 | HitlevelM [1, 8]: 3; HitlevelF [2, 9]: 0
CCCN1CCN(CCNc2c3ccccc3nc3ccccc23)CC1 [TCMDC-137549] | – | – | – | – | – | – | – | – | – | – | – | – | – | – | – | – | Average inhibition male (%) [1, 10]: 95.7%; % inhibition male (individual replicates) R1 [1, 10]: 96.4%; % inhibition male (individual replicates) R3 [1, 10]: 92.4%; % inhibition male (individual replicates) R4 [1, 10]: 99.6%; Average inhibition female (%) [2, 10]: 13.4%; % inhibition female (individual replicates) R1 [2, 10]: 14.9%; % inhibition female (individual replicates) R3 [2, 10]: 20.2%; % inhibition female (individual replicates) R4 [2, 10]: 28.7%
Br.CCCCCCCNCCNc1cc(C)nc2ccccc12 [TCMDC-137556] | 11.5 | 12.4 | 8.2 | 18.1 | 25.7 | 0.5 | 18.7 | – | – | – | – | – | – | – | – | 4.0 | HitlevelM [1, 8]: 0; HitlevelF [2, 9]: 0
COc1cccc2c(O)c(CNC3CCCCC3)ccc12.Cl [TCMDC-137595] | – | – | – | – | – | – | – | -3.5 | 3.4 | 4.2 | 3.3 | -8.7 | -13.9 | -3.5 | -7.6 | – | –
COc1ccc(CNCCCCCCNCc2ccc(OC)c3ccccc23)c2ccccc12.Cl [TCMDC-137631] | – | – | – | – | – | – | – | – | – | – | – | – | – | – | – | – | Average inhibition male (%) [1, 11]: 83.3%; % inhibition male (individual replicates) R1 [1, 11]: 71.0%; % inhibition male (individual replicates) R3 [1, 11]: 73.6%; % inhibition male (individual replicates) R4 [1, 11]: 100.9%; HitlevelM ([1]; number of replicates with >50% inhibition in the male readout, 2µM): 4; Average inhibition female (%) [2, 11]: 47.3%; % inhibition female (individual replicates) R1 [2, 11]: 36.3%; % inhibition female (individual replicates) R3 [2, 11]: 33.7%; % inhibition female (individual replicates) R4 [2, 11]: 34.7%; HitlevelF ([2]; number of replicates with >50% inhibition in the female readout, 2µM): 1
Cc1nc2nc(N)nc(N)c2c(C)c1Cc1cccc(C#N)c1.Cl [TCMDC-137646] | – | – | – | – | – | – | – | 10.9 | 34.4 | 21.2 | 19.8 | -3.5 | -14.6 | 5.5 | -8.2 | – | –
Cc1ccc(Cc2c(C)nc3nc(N)nc(N)c3c2C)cc1.Cl [TCMDC-137657] | – | – | – | – | – | – | – | 13.2 | 20.3 | 13.4 | 14.9 | -6.6 | 8.8 | -7.7 | -3.5 | – | –
Cc1nc2nc(N)nc(N)c2c(C)c1Cc1ccccc1Cl.Cl [TCMDC-137668] | 0.635 | 24.9 | -27.1 | 9.8 | 18.7 | -14.7 | 32.6 | – | – | – | – | – | – | – | – | -5.5 | HitlevelM [1, 4]: 0; Activity [1, 5]: 0; HitlevelF [2, 6]: 0
CC(C)N(Cc1cnc2nc(N)nc(N)c2n1)c1ccc(Cl)c(Cl)c1 [TCMDC-137675] | – | – | – | – | – | – | – | 8.1 | 1.6 | -34.5 | -1.6 | 8.3 | -2.9 | 6.8 | 1.4 | – | –
COc1ccc(N(C)Cc2cnc3nc(N)nc(N)c3n2)cc1 [TCMDC-137682] | – | – | – | – | – | – | – | 16.6 | – | -18.5 | 5.0 | 1.5 | 1.9 | 1.8 | 3.6 | – | –
CCCc1cc(Cc2cnc(N)nc2N)cc(CCC)c1O.Cl [TCMDC-137695] | – | – | – | – | – | – | – | 13.3 | -2.6 | -24.5 | -1.8 | -0.04 | -0.32 | -11.2 | -4.4 | – | –
Cc1cc(N2C(N)=NC(N)=NC2(C)C)ccc1Cl.Cl [TCMDC-137705] | -12.7 | 23.4 | -53.8 | 4.4 | 16.7 | -1.9 | -1.7 | – | – | – | – | – | – | – | – | -17.5 | HitlevelM [1, 4]: 0; Activity [1, 5]: 0; HitlevelF [2, 6]: 0
